Among the data in patent EP0376166A1, “Condensed quinoline system compound and process of preparation thereof” (MECT CORPORATION, priority 1988, dated 1990) are IC50, response vs control in vivo and cure values, retold here.

The test system of one test is KB Cell. Kind of test: Inhibition of multiplication (growth) of KB cells, in vitro. The format is cell-based, human. The note with it: Homo sapiens, 72 h, concentration for 50% growth inhibition vs control, compound added Day 1, cells counted Day 4, read-out: Conc.(ED50). On the procedure: KB cells, carcinomatous cell tumors, were transferred to in vitro floatation incubator systems, and added respectively with compounds of Examples 1 to 33. The results of cultivation added with these compounds were compared with the results of the control which was not added with any compound.
Cell used: KB Cell (Originating from human mouth epidermal cancer) Culture medium: Eagles minimal essential medium (MEM) supplemented with 10% calf serum Cultivation: 37°C carbon dioxide gas incubator (5% CO₂)
Day 0: KB cells were diluted in the culture medium to adjust the KB cell density to 2 x 10⁴/ml. Three ml of the cell suspension was inoculated in each of 60 mm plastic dishes. Two dishes per standard dosage were used. Day 1: Test compound was added to the medium so that the final concentrations were set to 100, 30, 10, 3 and 1 µg/ml. Day 4: Cells were scraped off from the dish using trypsin, and the cell number was countered using a Corter counter.
In generally accordance with the stipulations set forth by the National Cancer Institute (NCI), U.S.A., the concentration of compound necessary for exerting 50% growth inhibition (ED₅₀) compared to the control was determined. A compound was judged as effective when ED₅₀ was less than 4 µg/ml.

In the next test the test system is P-388. Kind of test: Prolongation of life span in P-388 implanted mice. Type of test: in vivo, CDF mouse. The note with it: for response vs control in vivo at 12.5 mg/kg: dosage 12.5 mg/kg; for response vs control in vivo at 25 mg/kg: dosage 25 mg/kg; for response vs control in vivo at 100 mg/kg / cure: dosage 100 mg/kg; for response vs control in vivo at 200 mg/kg: dosage 200 mg/kg; for response vs control in vivo at 400 mg/kg: dosage 400 mg/kg; for cure: cured mice per group of 6. On the procedure: Animal used: CDF mouse (6 mice/group) Tumor: P-388 Number of implanted cells: 10⁶ cells/mouse Implanted site: i.p. Day of administration: Day 1 and Day 5 Dosage: LD₅₀ or 400 mg/kg/day at the maximum

[1] abbreviates: P388, ip, T/C %, Day 1 and Day 5, P-388 10⁶ cells/mouse i.p., read-out: Ratio of Life Prolongation (%).

Converted amounts (≈) assume the structure as drawn. Some results are limits rather than exact numbers.

In the case of `COc1cc(NS(C)(=O)=O)ccc1Nc1c2ccccc2nc2c1[nH]c1ccc(N)cc12` [Compound 22, 2-amino-6-(4-methanesulfonamide-2-methoxyanilino)indolo[3,2-b]quinoline], the IC50 in the test with KB Cell is below 0.3 µg/mL. In the test with P-388 (setting [1]), the response vs control in vivo at 12.5 mg/kg came out at 171% and the response vs control in vivo at 25 mg/kg amounted to 200%.

As to `COc1cc(NS(C)(=O)=O)ccc1Nc1c2c(nc3c(C)cccc13)-c1ccccc1C2` [Compound 2], the IC50 with KB Cell was below 0.3 µg/mL. In the test on P-388 (setting [1]), the response vs control in vivo at 100 mg/kg was 257%, the response vs control in vivo at 200 mg/kg was determined as 99% and the response vs control in vivo at 400 mg/kg was found to be 97%. The cure with P-388 is on record as 1/6.

For the molecule `COc1cc(NS(C)(=O)=O)ccc1Nc1c2cccc(C)c2nc2c1[nH]c1cccc(C)c12` [Compound 10, 6-(4-methanesulfonamide-2-methoxyanilino)-1,10-dimethylindolo[3,2-b]quinoline], the IC50 in the test on KB Cell is below 0.3 µg/mL. For the same molecule, the response vs control in vivo at 3.12 mg/kg in the test on P-388 (P388, ip, T/C %, dosage 3.12 mg/kg, Day 1 and Day 5, P-388 10⁶ cells/mouse i.p., read-out: Ratio of Life Prolongation (%)) was 109%. For the same molecule, in the test on P-388 (P388, ip, T/C %, dosage 6.25 mg/kg, Day 1 and Day 5, P-388 10⁶ cells/mouse i.p., read-out: Ratio of Life Prolongation (%)), the response vs control in vivo at 6.25 mg/kg turned out to be 145%. Besides, in the test on P-388 (setting [1]), the response vs control in vivo at 12.5 mg/kg came to 165%, the response vs control in vivo at 25 mg/kg came out at 203% and the response vs control in vivo at 100 mg/kg was 260%. Moreover, in the test with P-388 (P388, ip, T/C %, dosage 50 mg/kg, Day 1 and Day 5, P-388 10⁶ cells/mouse i.p., read-out: Ratio of Life Prolongation (%)), the response vs control in vivo at 50 mg/kg is 223%. Further, the cure with P-388 was 1/6.

`COc1cc(NS(C)(=O)=O)ccc1Nc1c2ccccc2nc2c1oc1cccc(C)c12` [Compound 30, 6-(4-methanesulfonamide-2-methoxyanilino)-1-methylbenzofurano[3,2-b]quinoline]: in the test on KB Cell, the IC50 came out at 1.5 µg/mL (≈ 3.35 µM). In the test on P-388 (setting [1]), the response vs control in vivo at 100 mg/kg is 105%, the response vs control in vivo at 200 mg/kg was 108% and the response vs control in vivo at 400 mg/kg was found to be 151%.

Consider `COc1cc(NS(C)(=O)=O)ccc1Nc1c2ccccc2nc2c1[nH]c1ccc(NC(C)=O)cc12` [Compound 25], for which, in the test on KB Cell, the IC50 was below 0.3 µg/mL. Besides, in the test with P-388 (setting [1]), the response vs control in vivo at 12.5 mg/kg was found to be 135% and the response vs control in vivo at 25 mg/kg came to 174%.
